Test results published in patent US9931335B2, “Desethylhydroxychloroquine for the treatment of diseases associated with inflammation” (The Board of Trustees of the Leland Stanford Junior …, priority 2013, dated 2018).
“Also recorded” adds a separate entry of the source.

Key:
[1] = test system: high-fat diet-induced NASH in C57BL/6 mice; experiment: High fat diet-induced NAFLD/NASH in mice, prevention; assay type: in vivo, mouse; conditions: for liver score (NASH histology): 100 mg/kg/day from start of high-fat diet, vs vehicle (DHCQ P<0.001, HCQ P<0.05)
Method: To evaluate the effect of DHCQ and HCQ on an animal model of non-alcoholic fatty liver disease (NAFLD) which can lead to the development of NASH, C57BL/6 mice (8 per group) were fed a high-fat “western-style” diet (60% caloric content from fat; Taconic) for 6 weeks. The mice were asymptomatic throughout this time, but were developing a pre- or early-disease state. The mice were treated, starting at the time of initiation of the high-fat diet, with HCQ (100 mg/kg/day), DHCQ (100 mg/kg/day), or vehicle control, to prevent the development of NAFLD and NASH. After 6 weeks of treatment with DHCQ, HCQ and vehicle (control) while on a high-fat diet, blood was collected and mice sacrificed for histological analysis of liver pathology. Livers from the mice in each treatment group were fixed, embedded, sectioned, stained with H&E, representative micrographs are presented in FIG. 7A (both 10× and 20× magnification), “liver scores” determined using an established scoring system for NASH (Brunt et al, Nonalcoholic steatohepatitis: a proposal for grading and staging the histological lesions, American J. Gastroenterology, 1999, 94(9):2467-74).

[2] = test system: collagen-induced arthritis (CIA) in DBA/1 mice; experiment: Collagen-induced arthritis (CIA) mouse model for RA, treatment from first immunization; assay type: in vivo; conditions: 50 mg/kg/day oral gavage, 100 mg/kg/day loading day 14-21; vs vehicle, Mann Whitney U test P<0.05
[3] = test system: ganglion cell layer (GCL) of the retina; experiment: Retinal histology of mice dosed for 3 months; assay type: in vivo, mouse; conditions: for number of cells (nuclei) in the GCL vs vehicle / nuclear shrinkage in the ganglion cell layer (GCL): 100 mg/kg/day, 3 months; for nuclear shrinkage in the ganglion cell layer (GCL): H&E
Source text: At the time of termination, the eyes from each treatment group were carefully microdissected to ensure the retina remained intact, the eye was fixed in formalin, and the fixed eye sectioned to visualize the retina. […] Representative images of H&E stained retinal sections are presented from each treatment group in FIG. 17.
Using the histologic and quantitative pathology methodology adapted from Shichiri, et al (Shichiri, et al, JBC. 2012, 287(4):2926-34. PMID 22147702), the H&E stained retinal sections were evaluated for number of nuclei in the ganglion cell layer (GCL) (FIG. 18). The graph presents quantitation of the number of nuclei in the GCL of the retina from the indicated treatment groups. The number of cells in the GCL of the retina for each treatment group was compared with the number of cells in vehicle-treated control by two-tailed T test.

[4] = test system: experimental autoimmune encephalomyelitis (EAE) in SJL mice; experiment: EAE mouse model for MS, prevention (treatment from immunization); assay type: in vivo; conditions: for EAE clinical score (development and severity): 100 mg/kg/day oral gavage from immunization, 50 mg/kg/day from day 8, vs vehicle or BDCQ, P<0.05
Source text: Experimental autoimmune encephalomyelitis (EAE), a mouse model for MS, was induced in SJL mice (n=10 per group) by immunization with proteolipid protein peptide 139-151 (PLP 139-151) in CFA. […] Starting on day 8, mice were scored daily for the severity of EAE.

[5] = test system: established EAE in SJL mice; experiment: EAE mouse model for MS, treatment of established disease; assay type: in vivo; conditions: for EAE clinical score (severity of established EAE): 100 mg/kg/day oral gavage from day 14, 50 mg/kg/day 8 days later; for EAE clinical score (severity of established EAE) / Inflammatory Foci Score in the parenchyma / Inflammatory Foci Score, total score / Inflammatory Foci Score in the meninges: vs vehicle; for Inflammatory Foci Score in the parenchyma / Inflammatory Foci Score, total score / Inflammatory Foci Score in the meninges: brain histology at termination; for Inflammatory Foci Score in the meninges: P<0.05 two-tailed T test
Source text: Experimental autoimmune encephalomyelitis (EAE), a mouse model for MS, was induced in SJL mice (n=10 per group) by immunization with proteolipid protein peptide 139-151 (PLP 139-151) in CFA. […] At the termination of the experiment, mice were sacrificed, and the brains harvested, fixed, sections histologically scored by a blinded examiner for the number of inflammatory foci in the meninges and parenchyma using an established “Inflammatory Foci Score” (Chang et al, Recovery from EAE is associated with decreased survival of encephalitogenic T cells in the CNS of B7-1/B7-2-deficient mice. European J. Immunology, 2003, 33(7):2022-32).

[6] = LC/MS tissue levels of HCQ and DHCQ in plasma, retina and synovium of dosed mice; assay type: in vivo, mouse; conditions: for accumulation in the retina: 100 mg/kg/day oral gavage, LC/MS
Source text: The major risk to long term administration of hydroxychloroquine is retinal accumulation and subsequent ocular toxicity (Terahi et al, 2008. Semin Opthal. (3):201-208. PMID). We sought to evaluate the retinal deposition of HCQ and DHCQ. To do so, we performed mass spectrometric analysis of drug and metabolite content in retina, in operated side and non-operated side synovial tissue, and in plasma derived from mice treated with either HCQ or DHCQ. […] The indicated statistical comparisons between the levels measured in the indicated tissue from each group were compared by two-tailed T test (*P<0.05, **P<0.01, ***P<0.001).
Mice, dosing with HCQ and DHCQ, isolation of specific tissues, and mass spectrometry measurement of HCQ and DHCQ levels in tissue samples. C57BL6 (B6) mice (n=5 per group) were treated with HCQ (100 mg/kg/day) or DHCQ (100 mg/kg/day) by oral gavage for 3 months. At experimental termination (3 months) mice were sacrificed and eyes removed under dissecting microscope. Curved microdisecting scissors was used to cut along the cornea and sclera, remove and discard the lens and visceral leaving the neural retina with eye shell to be placed in PBS and homogenized followed by centrifugation. Synovium was microdissected from the operated knee or the contralateral non-operated knee, normalized by weight of tissue, and placed in HPLC grade water before being homogenized and centrifuged. Plasma was obtained by tail bleeding. Plasma and tissue samples were precipitated with acetonitrile and levels of HCQ, DHCQ, BDCQ were evaluated by liquid chromatography/mass spectrometry (LC/MS) at Climax Laboratories, Inc. (San Jose, Calif.). The LC/MS analysis was conducted by using Shimazu 10A HPLC system (Shimadzu Scientific Instruments, Inc., Pleasanton, Calif.) with ACE C18, 50×2.1 HPLC column and ABSciex API-4000 Mass Spectrometer (ABSciex Corp. Foster City, Calif.) with Electrospray Ionization (ESI) and negative Multiple Reaction Monitoring (MRM) Scan. A gradient elution was used in separating the test compound with a mobile phase A (0.1% Formic Acid in 5 mM of NH4AC) and B (0.1% Formic acid in acetonitrile).

[7] = 100 mg/kg/day, 6 weeks, vs vehicle

SMILES | liver score (NASH histology) ([1]; 6 weeks) | serum ALT [1, 7] | serum AST [1, 7] | liver score, AST and ALT compared to HCQ ([1]; P<0.05 two-tailed T test) | arthritis score (development of disease and disease activity) [2] | number of cells (nuclei) in the GCL vs vehicle [3] | nuclear shrinkage in the ganglion cell layer (GCL) [3] | EAE clinical score (development and severity) [4] | EAE disease activity compared to HCQ treatment ([4]; at several timepoints, P<0.05 Mann Whitney U test) | EAE clinical score (severity of established EAE) [5] | Inflammatory Foci Score in the parenchyma [5] | Inflammatory Foci Score, total score [5] | Inflammatory Foci Score in the meninges [5] | therapeutic activity in established EAE compared to HCQ ([5]; mouse, in vivo) | accumulation in the retina ([6]; 3 months) | level in surgical joint synovial tissue relative to retina ([6]; 100 mg/kg/day, 3 months) | level in retina relative to plasma ([6]; DHCQ in both HCQ and DHCQ dosed mice) | retinal cell loss in GCL, HCQ compared to DHCQ ([3]; P<0.05) | Kp at 3 months ([6]; C57BL6, mouse, retina/plasma, oral, HCQ in HCQ dosed mice, 100 mg/kg/day, 3 months, read-out: level in retina/level in plasma)
CC(CCCNCCO)Nc1ccnc2cc(Cl)ccc12 (stereo not drawn) [DHCQ, desethylhydroxychloroquine] | statistically reduced | prevents and reduces abnormal elevations | prevents and reduces abnormal elevations | statistically superior activity to HCQ | statistically reduced development of disease and reduced disease activity; also recorded: statistically lower | no reduction in the number of cells in the GCL | No increase in nuclear shrinkage in the GCL | prevented development of and reduced the severity of EAE | statistically superior activity | reducing the severity of EAE | statistically reduced | statistically reduced | statistically reduced | more robust therapeutic activity than treatment with HCQ | only low-level accumulation in the retina | accumulated at higher levels in the surgical joint synovial tissue relative to the low levels measured in the retina | much lower levels in plasma as compared to the retina |  | 
CCN(CCO)CCCC(C)Nc1ccnc2cc(Cl)ccc12 (stereo not drawn) [HCQ, hydroxychloroquine] | statistically reduced |  |  |  | statistically reduced development of disease and reduced disease activity; also recorded: statistically lower | significantly lower | increased nuclear shrinkage in the GCL | prevented development of and reduced the severity of EAE |  | reducing the severity of EAE | trends towards reductions | trends towards reductions | reduced |  | accumulated a high levels in the retina | accumulated at high levels in the retina relative to the low levels measured in the surgical joint synovial tissue |  | statistically increased retinal cell loss | ~8.5
